Source: US20050074867A1, “Preservation of competent cells at ambient temperatures” (priority 2001, published 2005)
Several values for one entry are separate records, joined by “and”; a condition that tells them apart may be missing. Identical values can stand only once.

Key:
[1] = test system: Escherichia coli ATCC strain MM294 cells; test: Preservation survival of electrocompetent E. coli MM294 cells dried by foam formation (plate count); format: cell-based; details: cells loaded with 10% MAG, preserved (dried) by foam formation; average of three independent experiments
Method: (1) Preparation of fresh electrocompetent cells: Escherichia coli ATCC strain MM294 cells were grown under standard conditions in L-broth (growth medium for E. coli), at 37° C., with moderate aeration (shaking at 250 rpm). An isolated colony from a fresh streak was inoculated into 5 ml of L-broth and incubated overnight (preculture). The following morning, the preculture was subcultured (1% inoculum) in 100 ml of L-broth+glucose (0.05%-0.5%). The cells were incubated until OD550=0.5 (subculture). At this point, the cells were transferred into 250 ml of L-broth+glucose (0.05%-0.5%) and incubation continued until OD550=0.8. Two flasks with 250 ml of cells were prepared.
When the culture OD550 reached 0.8 (cell density approx. 5×10^8 cfu/ml), the cells were harvested by centrifugation at 2,500 rpm (at room temperature) for 10 minutes. […] Bacterial counts were determined by diluting cells in PBS buffer and spread plating appropriate dilutions in duplicate on L-agar. The plates were incubated at 37° C. overnight and colonies were counted the following day. […]
(5) Assaying the preserved E. coli cells: Dried samples were rehydrated at room temperature. […] Plates were incubated at 37° C. overnight and colonies were counted the following day. […]

[2] = test system: commercial electrocompetent E. coli cells; test: Preservation yield and stability of commercial electrocompetent E. coli cells; format: cell-based
Method: (4) Preservation of electrocompetent E. coli cells: The cells (resuspended in PBS buffer or on 20% sucrose) were mixed with an equal mass of preservation solution consisting of 45% 2:1 sucrose:raffinose or 45% 4:1 sucrose:MAG on ice. Altematively, the cell pellets were resuspended directly in 22.5% sucrose:raffinose or 22.5% 4:1 sucrose:MAG. The 0.5 g aliquots were distributed in 5 ml glass serum vials or 0.2 g aliquots were distributed in 1.2 ml glass serum vials. To determine the survival in preservation solution before drying, cell-containing mixtures were diluted in PBS buffer containing 20% sucrose and appropriate dilutions were spread plated in duplicate on L-agar plates.
The samples were dried by foam formation. The mixtures were foamed at 0° C. and kept at that temperature until foam formation occurred. After foam was well formed, shelf temperature was increased to 20° C. and drying continued overnight (at least 12 hours).
When applicable, electrocompetent cells were frozen in the following manner. The cell suspension (100 μl) was mixed with 10% DMSO (10 μl) and slowly frozen at −80° C.
(5) Assaying the preserved E. coli cells: Dried samples were rehydrated at room temperature. 1 ml of rehydration solution (20% sucrose) was added to the 5 ml vials and 0.2 ml was added to the 1.2 ml vials. For the determination of preservation survival, rehydrated cells were diluted and spread plated in duplicate on L-agar plates. Plates were incubated at 37° C. overnight and colonies were counted the following day.
In this example, commercial electrocompetent E. coli cells, in the form of a bacterial pellet, were preserved by the foam formation process. The cells were concentrated 100-fold and preserved as described previously. To increase desiccation tolerance and enhance preservation survival. One aliquot of the cells were loaded in vitro with 10% MAG. The preserved cells were stored at 4° C. In addition to preservation by foam formation, the cells were preserved by slow freezing (with 10% DMSO) at −80° C.

[3] = Frozen cells 72 hours at −80° C., foam formation-preserved cells (loaded with 10% MAG) dried overnight
[4] = foam-preserved cells stored at 4° C., frozen cells at −80° C.

Question: Which results are given for `COC1OC(CO)C(O)C(O)C1O` (stereo not drawn) [MAG, a-methyl-glucoside]?
Answer: Preservation Yield Cfu/ml [1]: 1.1 × 10^10 Cfu/ml; Preservation yield % [1]: 53.5%; Preservation Yield Cfu/ml [2, 3]: 8.8 × 10^9 +/− 3.9 × 10^8 Cfu/ml; Preservation yield % [2, 3]: 63.6% and 63.6 +/− 2.8%; Stability (12 days) % [2, 4]: 68.5% and 68.5 +/− 0.8%; Stability (12 days) Cfu/ml [2, 4]: 9.5 × 10^9 +/− 1.1 × 10^8 Cfu/ml
